According to PMC6426982, “Anti-alcohol abuse drug disulfiram inhibits human PHGDH via disruption of its active tetrameric form through a specific cysteine oxidation” (Scientific Reports, 2019):
Changes are numbered by the printed parent chain. Like-named read-outs stand apart in the source and are kept apart here.

Legend:
[1] = target: T1, human PHGDH (wild type) (Homo sapiens, UniProt O43175); experiment: PHGDH isolated enzyme inhibition assay (NADH fluorescence), wild type; type: biochemical
T1 construct: peptides including 12 out of the 13 Cys residues of the full length PHGDH could be identified and tracked; made in house; host or cells: Escherichia coli BL21
T1 sequence (O43175 1-533): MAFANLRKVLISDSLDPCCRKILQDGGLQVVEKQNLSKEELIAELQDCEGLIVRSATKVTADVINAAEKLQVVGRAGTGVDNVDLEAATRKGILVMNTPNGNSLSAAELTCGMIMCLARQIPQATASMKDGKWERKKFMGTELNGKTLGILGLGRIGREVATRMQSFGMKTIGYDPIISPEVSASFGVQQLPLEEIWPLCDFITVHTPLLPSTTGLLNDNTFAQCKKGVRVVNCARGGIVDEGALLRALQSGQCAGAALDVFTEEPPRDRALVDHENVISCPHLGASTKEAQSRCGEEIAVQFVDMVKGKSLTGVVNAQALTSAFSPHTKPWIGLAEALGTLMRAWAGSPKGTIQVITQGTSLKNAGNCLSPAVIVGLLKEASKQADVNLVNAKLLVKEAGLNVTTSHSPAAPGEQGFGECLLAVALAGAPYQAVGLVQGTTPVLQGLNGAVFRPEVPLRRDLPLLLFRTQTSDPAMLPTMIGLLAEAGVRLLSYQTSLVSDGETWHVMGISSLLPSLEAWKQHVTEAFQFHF
Method: Enzymatic assay was adapted from a previously described procedure. […] Assays were performed in PHGDH assay buffer (50 mM Tris, pH 8.5, and 1 mM EDTA). […] The final concentration of DMSO in the assay mixture was set to 5%.
pET28a human PHGDH and pET28a human C116S PHGDH were transformed into BL21 Escherichia coli. A single colony was grown to an OD600 0.6 in 1 L of Luria broth. Protein expression was induced with 1 mM isopropyl thiogalactopyranoside (IPTG). […] Pellets were resuspended in 60 mL of lysis buffer (50 mM Tris, pH 8.5, 10 mM MgCl2, 300 mM NaCl, 10% glycerol, 5 mM imidazole) and sonicated, and cell debris were pelleted by centrifugation (20,000 × g, 30 min). The supernatant was collected and purified using Akta purifier on HisTrap^TM FF column (GE Healthcare). […] Fraction protein content was measured via a Bradford assay. […] Protein purity was assessed via SDS/PAGE and Coomassie staining.

[2] = target: T2, human PHGDH C116S mutant (Homo sapiens, UniProt O43175, C116S); experiment: PHGDH enzyme inhibition assay, C116S mutant; type: biochemical
T2 construct: peptides including 12 out of the 13 Cys residues of the full length PHGDH could be identified and tracked; made in house; host or cells: Escherichia coli BL21
T2 sequence (O43175 1-533 C116S): T1 sequence (O43175 1-533) with C116S
Method: (§1) Enzymatic assay was adapted from a previously described procedure. NADH fluorescence emission (Ex 340 nm/Em 460 nm) was followed over time. Assays were performed in PHGDH assay buffer (50 mM Tris, pH 8.5, and 1 mM EDTA). Substrates and enzyme concentrations were as follows: 3-PG, 240 μM; NAD^+, 120 μM; glutamate, 30 mM; PHGDH, 12 ng/μL; PSAT1, 20 ng/μL. The final concentration of DMSO in the assay mixture was set to 5%.
pET28a human PHGDH and pET28a human C116S PHGDH were transformed into BL21 Escherichia coli. A single colony was grown to an OD600 0.6 in 1 L of Luria broth. Protein expression was induced with 1 mM isopropyl thiogalactopyranoside (IPTG). The culture was chilled on ice for 30 min, cultured for 18 h at room temperature and pelleted (6,000 g, 20 min). Pellets were resuspended in 60 mL of lysis buffer (50 mM Tris, pH 8.5, 10 mM MgCl2, 300 mM NaCl, 10% glycerol, 5 mM imidazole) and sonicated, and cell debris were pelleted by centrifugation (20,000 × g, 30 min). The supernatant was collected and purified using Akta purifier on HisTrap^TM FF column (GE Healthcare). […] Fraction protein content was measured via a Bradford assay. […] Protein purity was assessed via SDS/PAGE and Coomassie staining.

[3] = target: T3, PHGDH (Homo sapiens, UniProt O43175); experiment: Incubation assay (time-dependent PHGDH inhibition); type: biochemical; conditions: DSF 50 µM, 45 min incubation, 37 °C, Fig. 1A; read-out: PHGDH inhibition after incubation
T3 construct: peptides including 12 out of the 13 Cys residues of the full length PHGDH could be identified and tracked; made in house; host or cells: Escherichia coli BL21
T3 sequence (O43175 1-533): T1 sequence (O43175 1-533)
Method: (§2) Figure 1 Characterization of PHGDH inhibition by DSF. Residual activity percentage of PHGDH (A) upon incubation with DSF (50 µM) for the indicated times and (B) after the rapid dilution assay experiment with DSF (50 µM). All experiments values were performed in triplicates at each compound dilution and error bars show the standard deviation. Data were collected at 37 °C with a PHGDH concentration of 12 ng/µL in 50 mM Tris and 1 mM EDTA at pH 8.5.
as §1

[4] = target: T3, PHGDH; experiment: Rapid dilution assay; type: biochemical; conditions: DSF 50 µM (Fig. 1B)
Method: as §2
Dilution experiment was conducted following a reported procedure. DSF (5 μM) or DMSO control was incubated with PHGDH for 45 min at 37 °C. Undiluted DSF (5 μM) was included as a positive control for inhibition.

[5] = test system: UM-UC-3-PHGDH+ cells; experiment: Cell proliferation inhibition (Presto Blue), PHGDH-expressing cells; type: cell-based, human
Method: (§3) UM-UC-3 (PHGDH+ and PHGDH-) bladder cancer cells were purchased from the ATCC and cultured in DMEM medium supplemented with 10% heat-inactivated Fetal Bovine Serum (FBS) and 1% penicillin/streptomycin. Cells were seeded at 2500 cells/well in 96-well plates in serine depleted media (MEM). DSF or vehicle (DSMO) was added and cells were grown for 48 hours. Viability was assessed using Presto Blue reagent (Life Technologies) according to manufacturer’s instructions.

[6] = test system: UM-UC-3-PHGDH- cells; experiment: Cell proliferation inhibition (Presto Blue), cells not expressing PHGDH; type: cell-based; conditions: Homo sapiens, UMUC3, serine depleted media, 48 hours
Method: as §3

[7] = target: T3, PHGDH; experiment: Cross-linking experiment with BS3 (oligomeric state); conditions: DSF 1-500 µM, 30 min, BS3 cross-linker
Method: PHGDH (3 μg) was incubated with DSF (1 µM, 5 µM, 10 µM, 50 μM, 100 μM, 250 µM, 500 μM) or vehicle control (DMSO) in 25 mM HEPES, pH 7.3, and 1 mM NAD^+ in 18 μL total volume for 30 min on ice. BS3 (S5799; Sigma) cross-linker dissolved in PBS was added to a final concentration of 5 mM and incubated for 30 min under shaking at room temperature. The reaction was then quenched for 15 min by adding 1 M Tris, pH 7.5, to a final concentration of 28 mM. Cross-linked proteins were mixed with sample buffer, boiled for 5 min, and run on SDS/PAGE. Gels were stained with Gelcode blue stain reagent (24592; Thermo) overnight and destained according to the manufacturer’s instructions.

[8] = target: T4, PHGDH cysteine residues (Homo sapiens, UniProt O43175); experiment: nanoUHPLC/MS of tryptic PHGDH peptides after DSF treatment (cysteine modification)
T4 construct: peptides including 12 out of the 13 Cys residues of the full length PHGDH could be identified and tracked; made in house; host or cells: Escherichia coli BL21
T4 sequence (O43175 1-533): T1 sequence (O43175 1-533)
Method: To unambiguously confirm this hypothesis and possibly identify the cysteine residues involved in this interaction, mass spectrometry experiments were undertaken. Briefly, PHGDH was incubated for 30 min with various concentrations of disulfiram (0.1x IC50, 1x IC50 and 10x IC50). At the end of the incubation, chloroacetamide was added and incubated 15′ in large excess in order to block the remaining free cysteines residues for the following analysis. The protein was separated from the medium (removal of the remaining chloroacetamide and DSF by liquid/liquid extraction with CHCl3/H2O) followed by trypsinization and analysis of the peptides by nanoUHPLC/MS.
Mass spectrometry experiments were carried out on an Orbitrap Lumos, following a previously reported procedure, with some modifications. A local protein database containing the human PHGDH sequence (accession Uniprot O43175) was used to process the obtained MS/MS data. Mass error was set to 15 ppm for precursor ions and 0.6 Da for fragment ions. Oxidation on Met; disulfiram, (+147.025 Da) and carbamidomethyl (+57.021 Da) were considered as variable modifications on Cys.

[9] = target: T1, human PHGDH (wild type); design: method as in PMID 28085281; conditions: drug screening campaign in the authors' lab; cited from earlier work
[10] = cited from earlier work

CCN(CC)C(=S)[S][Cu][S]C(=S)N(CC)CC [CuET, bis(diethyldithiocarbamate)–copper]
IC50 ([1]; wild type PHGDH 12 ng/µL, 37 °C, pH 8.5, Fig. 2, read-out: PHGDH inhibition (IC50)): ~10000 nM
fold weaker IC50 compared to DSF ([1]; wtPHGDH): about 16 fold

CCN(CC)C(=S)SSC(=S)N(CC)CC [DSF, bis(diethylthiocarbamoyl) disulfide]
IC50 ([1]; Wild Type PHGDH, Table 2, read-out: PHGDH inhibition (IC50)): 590 nM
IC50 ([1]; purified PHGDH, triplicates, Table 1, read-out: PHGDH inhibition (IC50)): 590 nM
IC50 ([1]; with Triton X 0.01%, Fig. S1B, read-out: IC50 on PHGDH WT): 490 nM
IC50 ([1]; without Triton X, Fig. S1A, read-out: IC50 on PHGDH WT): 530 nM
decrease in inhibitory potency on C116S mutant versus wild type enzyme [2]: 20 fold
IC50 ([2]; C116S mutant, Table 2): 10.2 µM
inhibition at 50 µM [3]: 100%
PHGDH activity after rapid dilution of the enzyme/inhibitor complex [4]: not restored
IC50 ([5]; Homo sapiens, UMUC3, 48 h, UM-UC-3 +PHGDH, serine depleted media, 48 hours): 775 nM
difference in proliferation IC50 between PHGDH- and PHGDH+ cells ([5]; UM-UC-3-PHGDH- versus UM-UC-3-PHGDH+): ~ 5 fold
IC50 [6]: 3.64 µM
oligomeric state of PHGDH after DSF treatment [7]: concentration-dependent shift from the tetrameric to the dimeric, and to a lesser extent to the monomeric, form
Percentage of modified peptides, C111 ([8]; DSF 0.05 µM, peptide 91-119): 4.87%
Percentage of modified peptides, C116 ([8]; DSF 0.05 µM, peptide 91-119): 9.75%
Percentage of modified peptides, C111 ([8]; DSF 0.05 µM, peptide 92-119): 1.92%
Percentage of modified peptides, C116 ([8]; DSF 0.05 µM, peptide 92-119): 7.69%
Percentage of modified peptides, C116 ([8]; DSF 0.5 µM, peptide 91-119 (Ox M)): 7.14%
Percentage of modified peptides, C111 ([8]; DSF 0.5 µM, peptide 92-119): 6.67%
Percentage of modified peptides, C116 ([8]; DSF 0.5 µM, peptide 92-119): 46.67%
Percentage of modified peptides, C111 ([8]; DSF 5 µM, peptide 91-119): 4.16%
Percentage of modified peptides, C116 ([8]; DSF 5 µM, peptide 91-119): 50.00%
Percentage of modified peptides, C111 ([8]; DSF 5 µM, peptide 92-119): 10.34%
Percentage of modified peptides, C116 ([8]; DSF 5 µM, peptide 92-119): 39.65%
Percentage of modified peptides, C281 ([8]; DSF 5 µM, peptide 271-289): 1.26%
IC50 [9]: 590 nM
Cmax ([10]; reported, read-out: maximum plasma concentration (Cmax)): 1280 nM
elimination half-life ([10]; single-dose administration of 250 mg of DSF): 7.3 h
